Assay results: PubChem BioAssay (NCI)
Several values for one entry are separate records, joined by “and”; a condition that tells them apart may be missing. Identical values can stand only once.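 Where inhibition never reached the appropriate level, the endpoint shown equals the highest concentration tested. Otherwise, values were interpolated linearly from a five-concentration, 48-hour dose response in 96-well plates. At the GI50, growth is halved. TGI: total growth inhibition.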

Experiments:
Assay in all cases: NCI anticancer screen, dose series, 48 h
[1] = system: SR leukemia
[2] = system: OVCAR-5 ovarian
[3] = system: UACC-257 melanoma
[4] = system: HCT-15 colon
[5] = system: SK-MEL-28 melanoma
[6] = system: M14 melanoma
[7] = system: HS 578T breast
[8] = system: HOP-92 NSCLC
[9] = system: NCI-H226 lung
[10] = system: IGROV1 ovarian
[11] = system: A498 renal
[12] = system: SK-MEL-2 melanoma
[13] = system: NCI-H23 lung
[14] = system: MALME-3M melanoma
[15] = system: CCRF-CEM leukemia
[16] = system: MOLT-4 leukemia
[17] = system: ACHN renal
[18] = system: KM12 colon
[19] = system: RPMI-8226 leukemia
[20] = system: RXF 393 renal
[21] = system: PC-3 prostate
[22] = system: OVCAR-8 ovarian
[23] = system: DU-145 prostate
[24] = system: A549 NSCLC
[25] = system: HCT-116 colon
[26] = system: UO-31 renal
[27] = system: SK-OV-3 ovarian
[28] = system: COLO 205 colon
[29] = system: HOP-62 NSCLC
[30] = system: U251 CNS
[31] = system: HL-60(TB) leukemia
[32] = system: SNB-75 CNS
[33] = system: OVCAR-3 ovarian
[34] = system: SW-620 colon
[35] = system: SF-268 CNS
[36] = system: NCI-H460 lung

COc1ccc2nc3cc(Cl)ccc3c(N)c2c1
GI50 [1]: 236 nM
TGI [1]: 591 nM
GI50 [2]: 2090 nM
TGI [2]: 3660 nM
GI50 [3]: 1930 nM
TGI [3]: 3480 nM
GI50 [4]: 713 nM
TGI [4]: 2970 nM
GI50 [5]: 2010 nM
TGI [5]: 3510 nM
GI50 [6]: 1940 nM
TGI [6]: 3710 nM
GI50 [7]: 2860 nM
TGI [7]: > 100000 nM

C/C=C/C[C@@H](C)C(=O)C1C(=O)N[C@@H](C(C)C)C(=O)N(C)CC(=O)N(C)[C@@H](CC(C)C)C(=O)N[C@@H](C(C)C)C(=O)N(C)[C@@H](CC(C)C)C(=O)N[C@@H](C)C(=O)N[C@@H](C)C(=O)N(C)[C@@H](CC(C)C)C(=O)N(C)[C@@H](CC(C)C)C(=O)N(C)[C@@H](C(C)C)C(=O)N1C (stereo partly drawn)
TGI [8]: > 20500 nM
GI50 [9]: 45300 nM
TGI [9]: 18400 nM and 83200 nM
GI50 [10]: 20800 nM
TGI [10]: 65600 nM
GI50 [11]: 50400 nM
TGI [11]: 71500 nM
GI50 [12]: 40800 nM
TGI [12]: 76300 nM
GI50 [13]: 47000 nM
TGI [13]: > 20500 nM
GI50 [3]: 45500 nM
TGI [3]: > 20500 nM and 67000 nM
GI50 [14]: 75800 nM

C/C(=C\C(=N\N=C(N)N)c1ccc(Cl)cc1)c1ccc(Cl)cc1
GI50 [15]: 112 nM
TGI [15]: 1940 nM
GI50 [16]: 276 nM
TGI [16]: 950 nM
GI50 [17]: 42.4 nM
TGI [17]: 1510 nM
GI50 [8]: 918 nM
TGI [8]: 2310 nM
GI50 [18]: 1350 nM
TGI [18]: 2690 nM
GI50 [19]: 2190 nM
TGI [19]: 5140 nM
GI50 [9]: 2170 nM
TGI [9]: 4750 nM
GI50 [20]: 1710 nM
TGI [20]: 3100 nM
GI50 [21]: 1290 nM
TGI [21]: 2690 nM
GI50 [22]: 1180 nM
TGI [22]: 2900 nM
GI50 [23]: 146 nM
TGI [23]: 1500 nM
GI50 [24]: 424 nM
TGI [24]: 1560 nM
GI50 [25]: 251 nM
TGI [25]: 712 nM
GI50 [26]: 1440 nM
TGI [26]: 2850 nM
GI50 [27]: 1690 nM
TGI [27]: 3080 nM
GI50 [28]: 19.8 nM
TGI [28]: 34.3 nM
GI50 [29]: 45.4 nM
TGI [29]: 1620 nM
GI50 [30]: 924 nM
TGI [30]: 2140 nM
GI50 [31]: 2030 nM
TGI [31]: 3780 nM
GI50 [32]: 1480 nM
TGI [32]: 2910 nM
GI50 [33]: 1720 nM
TGI [33]: 3210 nM
GI50 [34]: 470 nM
TGI [34]: 1730 nM
GI50 [35]: 1370 nM
TGI [35]: 3060 nM
GI50 [36]: 1300 nM
TGI [36]: 2660 nM
GI50 [7]: 2080 nM
TGI [7]: 4550 nM
